Source: US20050191628A1, “Antibiotics based upon bacteriophage lysis proteins” (priority 1999, published 2005)

Tests used:
MraY = biological target: T1, MraY (Escherichia coli, UniProt P0A6W3); assay type: biochemical, E. coli; details: membranes of ET505 strains; average of 3 experiments ± standard deviation (tunicamycin: average of duplicates)
T1 construct: endogenous in cells; host or cells: E. coli K-12 ET505 (W3110 lysA::Tn10) membranes, carrying pJFlacZK (control) or pEmycZK (E-expressing)
T1 sequence (P0A6W3 1-360): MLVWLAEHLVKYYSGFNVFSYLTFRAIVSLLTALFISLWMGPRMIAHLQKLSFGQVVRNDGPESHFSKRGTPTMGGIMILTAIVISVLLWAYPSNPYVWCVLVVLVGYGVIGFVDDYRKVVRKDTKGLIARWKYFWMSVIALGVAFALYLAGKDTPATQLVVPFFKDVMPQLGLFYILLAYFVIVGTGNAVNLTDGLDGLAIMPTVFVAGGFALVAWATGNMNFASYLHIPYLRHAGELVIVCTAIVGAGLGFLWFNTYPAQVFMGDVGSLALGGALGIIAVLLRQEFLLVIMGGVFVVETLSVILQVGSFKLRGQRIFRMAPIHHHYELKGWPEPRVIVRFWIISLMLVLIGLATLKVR

Rfe = biological target: T2, Rfe (Escherichia coli, UniProt P0AC78); assay type: biochemical, E. coli; details: membranes of ET505 strains; average of 3 experiments ± standard deviation
T2 construct: endogenous in cells; host or cells: E. coli K-12 ET505 (W3110 lysA::Tn10) membranes, carrying pJFlacZK (control) or pEmycZK (E-expressing)
T2 sequence (P0AC78 1-367): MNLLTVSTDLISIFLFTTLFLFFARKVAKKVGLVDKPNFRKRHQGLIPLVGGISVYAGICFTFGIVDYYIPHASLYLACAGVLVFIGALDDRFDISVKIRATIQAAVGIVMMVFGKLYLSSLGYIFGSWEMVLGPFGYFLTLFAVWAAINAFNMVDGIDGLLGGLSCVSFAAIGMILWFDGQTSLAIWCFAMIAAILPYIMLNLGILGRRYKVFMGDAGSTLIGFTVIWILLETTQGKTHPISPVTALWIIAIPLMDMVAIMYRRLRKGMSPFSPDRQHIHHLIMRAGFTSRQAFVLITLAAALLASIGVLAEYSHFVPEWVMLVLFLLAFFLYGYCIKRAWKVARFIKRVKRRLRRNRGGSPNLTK

tunicamycin
cpm of [3H]-UMP converted to [3H]-UDP-MurNAc-pentapeptide in membrane preparations by MraY (MraY): 2000 cpm | cpm of [3H]-UMP converted to [3H]-UDP-GlcNAc in membrane preparations by Rfe (Rfe): 3400 ± 500 cpm
